Measurements taken from BindingDB's records for doi:10.1124/mol.110.070540 (University of Technology Sydney, 2011).
Bridge positions count the residues as written; N and C are the ends. Peptide text beside a SMILES is read from it.

What was measured:
[1] = Inhibition of voltage-gated calcium channel Cav-mediated late-sustained current in Periplaneta americana (American cockroach) DUM neurons assessed as measured at holding potential -80 mV depolarized to +40 mV after 10 min by whole cell patch clamp assay in presence of CdCl2
[2] = Inhibition of voltage-gated calcium channel Cav-mediated fast-transient current in Periplaneta americana (American cockroach) DUM neurons assessed as measured at holding potential -80 mV depolarized to +40 mV after 10 min by whole cell patch clamp assay in presence of CdCl2

| IC50 [1] [nM] | IC50 [2] [nM] | SMILES |
| --- | --- | --- |
| 19 | 25 | CSCC[C@@H]1NC(=O)[C@H](CCCCN)NC(=O)[C@H](Cc2ccccc2)NC(=O)[C@H](CCC(N)=O)NC(=O)[C@@H](NC(=O)[C@@H](N)Cc2ccc(O)cc2)CSSC[C@@H]2NC(=O)[C@@H]3CSSC[C@@H](C(=O)N[C@@H](CCCCN)C(=O)N[C@@H](CC(C)C)C(=O)N[C@@H](CC(N)=O)C(=O)N[C@@H](CC(C)C)C(=O)O)NC(=O)[C@H](Cc4c[nH]c5ccccc45)NC(=O)[C@H](CC(C)C)NC(=O)[C@H](CCCNC(=N)N)NC(=O)[C@H](CSSC[C@H](NC(=O)[C@H]([C@@H](C)O)NC(=O)[C@H](Cc4c[nH]c5ccccc45)NC1=O)C(=O)N[C@@H](CC(=O)O)C(=O)N[C@@H](CO)C(=O)N[C@@H](CCC(=O)O)C(=O)N[C@@H](CCCNC(=N)N)C(=O)N[C@@H](CCCCN)C(=O)N3)NC(=O)[C@H](C(C)C)NC(=O)[C@H](CCSC)NC(=O)[C@H](CC(=O)O)NC(=O)[C@H](CCC(=O)O)NC2=O |
| 3.7 | 3.7 | CSCC[C@@H]1NC(=O)[C@H](CC(=O)O)NC(=O)[C@H](CCC(=O)O)NC(=O)[C@@H]2CSSC[C@H](NC(=O)[C@@H](N)Cc3ccc(O)cc3)C(=O)N[C@@H](CCC(N)=O)C(=O)N[C@@H](CCCCN)C(=O)N[C@@H](Cc3ccccc3)C(=O)N[C@@H](CC(C)C)C(=O)N[C@@H](Cc3c[nH]c4ccccc34)C(=O)N[C@@H]([C@@H](C)O)C(=O)N[C@H]3CSSC[C@H](NC(=O)[C@H](C(C)C)NC1=O)C(=O)N[C@@H](CCC(=O)O)C(=O)N[C@@H](CC(C)C)C(=O)N[C@@H](Cc1c[nH]c4ccccc14)C(=O)N[C@H](C(=O)N[C@@H](CCCCN)C(=O)N[C@@H](CC(C)C)C(=O)N[C@@H](CCC(=O)O)C(=O)N[C@@H](CCCCN)C(=O)O)CSSC[C@H](NC(=O)[C@H](CCCCN)NC(=O)[C@H](CCCNC(=N)N)NC(=O)[C@H](CCC(=O)O)NC(=O)[C@H]([C@@H](C)O)NC(=O)[C@H](CC(=O)O)NC3=O)C(=O)N2 (H-YCQKFLWTCDTERKCCEDMVCELWCKLEK-OH; disulfide 2-16, 9-21, 15-25) |
| 26 | 25 | CSCC[C@@H]1NC(=O)[C@H](CC(=O)O)NC(=O)[C@H](CCC(=O)O)NC(=O)[C@@H]2CSSC[C@H](NC(=O)[C@@H](N)Cc3ccc(O)cc3)C(=O)N[C@@H](CCC(N)=O)C(=O)N[C@@H](CCCCN)C(=O)N[C@@H](Cc3ccccc3)C(=O)N[C@@H](CC(C)C)C(=O)N[C@@H](Cc3c[nH]c4ccccc34)C(=O)N[C@@H]([C@@H](C)O)C(=O)N[C@H]3CSSC[C@H](NC(=O)[C@H](C(C)C)NC1=O)C(=O)N[C@@H](CCC(=O)O)C(=O)N[C@@H](CC(C)C)C(=O)N[C@@H](Cc1c[nH]c4ccccc14)C(=O)N[C@H](C(=O)N[C@@H](CCCCN)C(=O)N[C@@H](Cc1ccc(O)cc1)C(=O)N[C@@H](CCCCN)C(=O)N[C@@H](CCC(=O)O)C(=O)O)CSSC[C@H](NC(=O)[C@H](CCCCN)NC(=O)[C@H](CCCNC(=N)N)NC(=O)[C@H](CCC(=O)O)NC(=O)[C@H]([C@@H](C)O)NC(=O)[C@H](CC(=O)O)NC3=O)C(=O)N2 (H-YCQKFLWTCDTERKCCEDMVCELWCKYKE-OH; disulfide 2-16, 9-21, 15-25) |
